Laboratory results: US20250215039A1, “NUCLEOSIDES FOR TREATING CANCER” (PRIMEFOUR THERAPEUTICS, INC., priority 2022, published 2025)
Read-outs that look alike come from different tables or passages of the source.

System: cancer cell lines
Experiment: Cancer cell proliferation activity (CellTiterGlo, 72 h)
Format: cell-based
Conditions: 72 h, 72 h, read-out: IC50
Outline: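 Cells seeded overnight at 37 °C, then dosed with compound at 0.1% final DMSO and incubated 72 h at 37 °C (5% or 10% CO2 by medium).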

- IC50 (5637 cell line (bladder)): > 50 µM
- IC50 (AS49 cell line (lung)): > 50 µM
- IC50 (CLS439 cell line (bladder)): > 50 µM
- IC50 (HS729 cell line (muscle)): > 50 µM
- IC50 (JAR cell line (placenta)): > 50 µM
- IC50 (Homo sapiens, 786-0, 72 h, 786O cell line (kidney)): > 50 µM
- IC50 (Homo sapiens, A2780, 72 h, A2780 cell line (ovary)): > 50 µM
- IC50 (Homo sapiens, A-375, 72 h, A375 cell line (skin)): > 50 µM
- IC50 (Homo sapiens, A-431, 72 h, A431 cell line (skin)): 2.6 µM
- IC50 (Homo sapiens, ASPC1, 72 h, ASPC1 cell line (pancreas)): > 50 µM
- IC50 (Homo sapiens, BT-20, 72 h, BT20 cell line (breast)): > 50 µM
- IC50 (Homo sapiens, CAKI-1, 72 h, CAKI1 cell line (kidney)): > 50 µM
- IC50 (Homo sapiens, COLO 205, 72 h, COLO205 cell line (colon)): > 50 µM
- IC50 (Homo sapiens, COLO-678, 72 h, COLO678 cell line (colon)): > 50 µM
- IC50 (Homo sapiens, Ca-Ski, CASKI cell line (cervical)): > 50 µM
- IC50 (Homo sapiens, Caco-2, 72 h, CACO2 cell line (colon)): > 50 µM
- IC50 (Homo sapiens, Calu-6, 72 h, CALU6 cell line (lung)): > 50 µM
- IC50 (Homo sapiens, EFO-21, 72 h, EFO21 cell line (ovary)): > 50 µM
- IC50 (Homo sapiens, EJ-28, 72 h, EJ28 cell line (bladder)): > 50 µM
- IC50 (Homo sapiens, HCT-15, 72 h, HCT15 cell line (colon)): > 50 µM
- IC50 (Homo sapiens, HCT-116, 72 h, HCT116 cell line (colon)): > 50 µM
- IC50 (Homo sapiens, HEK293, 72 h, HEK293 cell line (kidney)): > 50 µM
- IC50 (Homo sapiens, HL-60, 72 h, HL-60 cell line (hematological)): > 50 µM
- IC50 (Homo sapiens, HT-29, 72 h, HT29 cell line (colon)): > 50 µM
- IC50 (Homo sapiens, HT-1080, 72 h, HT1080 cell line (connective tissue)): > 50 µM
- IC50 (Homo sapiens, HeLa, HELA cell line (cervical)): > 50 µM
- IC50 (Homo sapiens, Hs-578T, HS578T cell line, breast): > 50 µM
- IC50 (Homo sapiens, IGROV-1, 72 h, IGROV1 cell line (ovary)): > 50 µM
- IC50 (Homo sapiens, IMR-90, 72 h, IMR90 cell line, lung): > 50 µM
- IC50 (Homo sapiens, J82, 72 h, J82 cell line (bladder)): 4.88 µM
- IC50 (Homo sapiens, JEG-3, 72 h, JEG3 cell line (placenta)): > 50 µM
- IC50 (Homo sapiens, JIMT-1, 72 h, JIMT1 cell line (breast)): > 50 µM
- IC50 (Homo sapiens, K562, 72 h, K-562 cell line (hematological)): > 50 µM
- IC50 (Homo sapiens, Kasumi 1, 72 h, KASUMI-1 cell line (hematological)): > 50 µM
- IC50 (Homo sapiens, L-363, 72 h, L-363 cell line (hematological)): > 50 µM
- IC50 (Homo sapiens, MCF7, 72 h, MCF7 cell line (breast)): > 50 µM
- IC50 (Homo sapiens, MDA-MB-231, 72 h, MDAMB231 cell line (breast)): > 50 µM
- IC50 (Homo sapiens, MDA-MB-435, 72 h, MDAMB435 cell line (skin)): > 50 µM
- IC50 (Homo sapiens, MDA-MB-468, 72 h, MDAMB468 cell line (breast)): > 50 µM
- IC50 (Homo sapiens, MG-63, 72 h, MG63 cell line (bone)): > 50 µM
- IC50 (Homo sapiens, MIA PaCa-2, 72 h, MIAPACA2 cell line (pancreas)): > 50 µM
- IC50 (Homo sapiens, MV4-11, 72 h, MV4-11 cell line (hematological)): 0.38 µM
- IC50 (Homo sapiens, NCI-H292, 72 h, NCIH292 cell line (lung)): > 50 µM
- IC50 (Homo sapiens, NCI-H460, 72 h, NCIH460 cell line (lung)): 2.8 µM
- IC50 (Homo sapiens, OVCAR-3, 72 h, OVCAR3 cell line (ovary)): > 50 µM
- IC50 (Homo sapiens, OVCAR-4, 72 h, OVCAR4 cell line (ovary)): > 50 µM
- IC50 (Homo sapiens, PANC-1, 72 h, PANC1 cell line (pancreas)): > 50 µM
- IC50 (Homo sapiens, PC-3, 72 h, PC3 cell line (prostate)): > 50 µM
- IC50 (Homo sapiens, Panc1005, 72 h, PANC1005 cell line (pancreas)): > 50 µM
- IC50 (Homo sapiens, RD, RD cell line (muscle)): > 50 µM
- IC50 (Homo sapiens, Ramos, RAMOS cell line (hematological)): > 50 µM
- IC50 (Homo sapiens, SAOS-2, 72 h, SAOS2 cell line (bone)): > 50 µM
- IC50 (Homo sapiens, SF-295, 72 h, SF295 cell line (brain)): > 50 µM
- IC50 (Homo sapiens, SK-MEL-5, 72 h, SKMEL5 cell line, skin): > 50 µM
- IC50 (Homo sapiens, SK-MEL-28, 72 h, SKMEL28 cell line (skin)): > 50 µM
- IC50 (Homo sapiens, SK-N-AS, SKNAS cell line (brain)): > 50 µM
- IC50 (Homo sapiens, SK-N-SH, SKNSH cell line (brain)): > 50 µM
- IC50 (Homo sapiens, SK-OV-3, 72 h, SKOV3 cell line (ovary)): > 50 µM
- IC50 (Homo sapiens, SU-DHL10, 72 h, SU-DHL-10 cell line (hematological)): > 50 µM
- IC50 (Homo sapiens, SW-620, 72 h, SW620 cell line (colon)): > 50 µM
- IC50 (Homo sapiens, T-24, 72 h, T24 cell line (bladder)): 3.01 µM
- IC50 (Homo sapiens, TE-671, 72 h, TE671 cell line (muscle)): > 50 µM
- IC50 (Homo sapiens, U2OS, U2OS cell line (bone)): > 50 µM
- IC50 (Homo sapiens, UMUC3, 72 h, UMUC3 cell line (bladder)): > 50 µM
- IC50 (Homo sapiens, UO-31, 72 h, UO31 cell line (kidney)): > 50 µM
- IC50 (MT-3, 72 h, MT3 cell line (breast)): 3.77 µM
- IC50 (NCI-H358M, NCIH358M cell line (lung)): > 50 µM
- IC50 (PBMC, PBMC (hematological)): > 50 µM
SMILES: Cc1cn([C@H]2C[C@H](O)[C@@](C#N)(CO)O2)c(=O)[nH]c1=O [Cpd. No. 123, (2R,3S,5R)-3-hydroxy-2-(hydroxymethyl)-5-(5-methyl-2,4-dioxo-3,4-dihydropyrimidin-1(2H)-yl)tetrahydrofuran-2-carbonitrile]
